The numbers were not newly measured in patent US20250345332A1, “APROCITENTAN FOR THE TREATMENT OF HYPERTENSION” (IDORSIA PHARMACEUTICALS LTD, priority 2022, published 2025), which cites them from elsewhere.

In series [1] the test system is patients with type 2 diabetes and overt diabetic nephropathy. The conditions noted are these: in vivo; cited from earlier work.
Series [2] concerns patients with rHT. The conditions noted are these: cited from earlier work.
Series [3] deals with subjects having essential hypertension. Particulars: lisinopril 20 mg, cited from earlier work.
The test system is the same in series [4]. Particulars: after 8 weeks once daily, at trough, aprocitentan 5, 10, 25, 50 mg groups, lisinopril 20 mg, cited from earlier work.

Regarding `COc1ccccc1Oc1c(NS(=O)(=O)c2ccc(C)cn2)nc(-c2ccncc2)nc1OC` [Avosentan, avosentan], in series [1], the “albumin-to-creatinine ratio (ACR)” value was “significantly reduced”.

For the molecule `COc1cc(OC)nc(O[C@H](C(=O)O)C(OC)(c2ccccc2)c2ccccc2)n1` [darusentan], in series [2] (14 weeks), the “reduction of ambulatory blood pressure” value is recorded as “demonstrated efficacy” and the “treatment effect on the primary endpoint systolic blood pressure” value is given as “failed to show significant treatment effect”. Further, in series [2] (versus 12% in each of the other groups), the “fluid retention/edema (most frequent adverse event)” value is reported as 28%.

Regarding `NCCCC[C@H](N[C@@H](CCc1ccccc1)C(=O)O)C(=O)N1CCC[C@H]1C(=O)O` [lisinopril, reference compound], the “discontinuation from study treatment due to an adverse event” value in series [3] (aprocitentan 5-50 mg groups) is 3.7%. Also, the “mean body weight decrease from baseline” value in series [3] was 0.3 kg. Besides, the “mean reduction from baseline in diastolic blood pressure” value in series [4] (per-protocol population) is on record as 8.4 mmHg. In addition, the “systolic blood pressure reductions” value in series [4] is on record as 12.8 mmHg.
